Laboratory results taken from PubChem BioAssay (NCI).
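Step 1: Grow cells in 96-well plates. Step 2: Expose to compound for 48 hours at 5 concentrations. Step 3: Interpolate endpoints linearly; if unreached, use highest concentration. At the GI50, growth is halved. The concentration for full growth arrest is given as TGI.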

Legend:
Experiment in all cases: DTP human tumour cell line panel, 48 h
[1] = system: MCF7 breast
[2] = system: M14 melanoma
[3] = system: IGROV1 ovarian
[4] = system: HCT-116 colon
[5] = system: MDA-MB-231 breast
[6] = system: HT29 colon
[7] = system: CCRF-CEM leukemia
[8] = system: SW-620 colon
[9] = system: TK-10 renal
[10] = system: LOX IMVI melanoma
[11] = system: NCI-H226 lung
[12] = system: ACHN renal
[13] = system: SN12C renal
[14] = system: SF-295 CNS
[15] = system: RXF 393 renal
[16] = system: SK-MEL-2 melanoma
[17] = system: 786-0 renal
[18] = system: EKVX NSCLC
[19] = system: SR leukemia
[20] = system: BT-549 breast
[21] = system: SK-MEL-28 melanoma
[22] = system: SNB-19 CNS
[23] = system: CAKI-1 renal
[24] = system: NCI-H460 lung
[25] = system: NCI-H522 lung
[26] = system: SF-268 CNS
[27] = system: COLO 205 colon
[28] = system: OVCAR-8 ovarian
[29] = system: UO-31 renal
[30] = system: PC-3 prostate
[31] = system: K-562 leukemia
[32] = system: MDA-N
[33] = system: OVCAR-4 ovarian
[34] = system: SNB-75 CNS
[35] = system: MOLT-4 leukemia
[36] = system: NCI/ADR-RES ovarian
[37] = system: HOP-92 NSCLC
[38] = system: SK-MEL-5 melanoma
[39] = system: KM12 colon
[40] = system: OVCAR-3 ovarian
[41] = system: MALME-3M melanoma
[42] = system: UACC-62 melanoma
[43] = system: UACC-257 melanoma
[44] = system: NCI-H23 lung
[45] = system: OVCAR-5 ovarian
[46] = system: HCC-2998 colon
[47] = system: SF-539 CNS
[48] = system: RPMI-8226 leukemia
[49] = system: A549 NSCLC
[50] = system: HCT-15 colon
[51] = system: MDA-MB-435
[52] = system: DU-145 prostate
[53] = system: U251 CNS
[54] = system: HOP-62 NSCLC
[55] = system: SK-OV-3 ovarian
[56] = system: HS 578T breast
[57] = system: A498 renal
[58] = system: HL-60(TB) leukemia
[59] = system: T-47D breast

C=CCOCC1C2CCC3(OCCO3)C21 (configuration not stated)
TGI [1]: > 100 µM
TGI [2]: > 100 µM
TGI [3]: > 100 µM
TGI [4]: > 100 µM
TGI [5]: > 100 µM
TGI [6]: > 100 µM
TGI [7]: > 100 µM
TGI [8]: > 100 µM
TGI [9]: > 100 µM
TGI [10]: > 100 µM
TGI [11]: > 100 µM
TGI [12]: > 100 µM
TGI [13]: > 100 µM
TGI [14]: > 100 µM
TGI [15]: > 100 µM
TGI [16]: > 100 µM
TGI [17]: > 100 µM
TGI [18]: > 100 µM
TGI [19]: > 100 µM
TGI [20]: > 100 µM
TGI [21]: > 100 µM
TGI [22]: > 100 µM
TGI [23]: 87.5 µM
TGI [24]: > 100 µM
TGI [25]: > 100 µM
TGI [26]: > 100 µM
TGI [27]: > 100 µM
TGI [28]: > 100 µM
TGI [29]: 75.2 µM
TGI [30]: > 100 µM
TGI [31]: > 100 µM
TGI [32]: > 100 µM
TGI [33]: > 100 µM
TGI [34]: > 100 µM
TGI [35]: > 100 µM
TGI [36]: > 100 µM
TGI [37]: > 100 µM
TGI [38]: > 100 µM
TGI [39]: > 100 µM
TGI [40]: > 100 µM
TGI [41]: > 100 µM
TGI [42]: > 100 µM
TGI [43]: > 100 µM
TGI [44]: > 100 µM
TGI [45]: > 100 µM
TGI [46]: > 100 µM
TGI [47]: > 100 µM
TGI [48]: > 100 µM
TGI [49]: > 100 µM
TGI [50]: > 100 µM
TGI [51]: > 100 µM
TGI [52]: > 100 µM
TGI [53]: > 100 µM
TGI [54]: > 100 µM
TGI [55]: > 100 µM

Clc1ccc2c(NCCNc3nc(N4CCOCC4)nc4ccccc34)ccnc2c1
GI50 [56]: 2.58 µM
TGI [56]: 7.71 µM
GI50 [1]: 3.82 µM
TGI [1]: 17.2 µM
GI50 [2]: 1.94 µM
TGI [2]: 3.89 µM
GI50 [57]: 1.87 µM
TGI [57]: 4.62 µM
GI50 [3]: 2.88 µM
TGI [3]: 10.2 µM
GI50 [4]: 1.66 µM
TGI [4]: 3.3 µM
GI50 [5]: 1.56 µM
TGI [5]: 3.63 µM
GI50 [6]: 1.89 µM
TGI [6]: 3.56 µM
GI50 [7]: 1.67 µM
TGI [7]: 11.7 µM
GI50 [8]: 2.97 µM
TGI [8]: 10.8 µM
GI50 [9]: 1.83 µM
TGI [9]: 3.39 µM
GI50 [58]: 1.09 µM
TGI [58]: 3.12 µM
GI50 [10]: 1.8 µM
TGI [10]: 3.45 µM
GI50 [11]: 1.68 µM
TGI [11]: 3.57 µM
GI50 [12]: 1.75 µM
TGI [12]: 3.49 µM
GI50 [13]: 2.75 µM
TGI [13]: 7.69 µM
GI50 [14]: 1.75 µM
TGI [14]: 3.24 µM
GI50 [15]: 1.61 µM
TGI [15]: 3.63 µM
GI50 [16]: 1.95 µM
TGI [16]: 3.72 µM
GI50 [17]: 1.79 µM
TGI [17]: 4.95 µM
GI50 [18]: 4 µM
TGI [18]: 16.4 µM
GI50 [19]: 0.313 µM
TGI [19]: 2.03 µM
GI50 [20]: 2.07 µM
TGI [20]: 4.69 µM
GI50 [21]: 2.1 µM
TGI [21]: 4.12 µM
GI50 [22]: 2.59 µM
TGI [22]: 8.78 µM
GI50 [24]: 2.03 µM
TGI [24]: 4.16 µM
GI50 [25]: 2.03 µM
TGI [25]: 3.8 µM
GI50 [26]: 3.53 µM
TGI [26]: 13 µM
GI50 [27]: 2.02 µM
TGI [27]: 4.46 µM
GI50 [28]: 2.18 µM
TGI [28]: 5.24 µM
GI50 [29]: 1.34 µM
TGI [29]: 2.68 µM
GI50 [30]: 4.5 µM
TGI [30]: 17.1 µM
GI50 [31]: 0.892 µM
TGI [31]: 13.1 µM
GI50 [33]: 2.46 µM
TGI [33]: 6.17 µM
GI50 [34]: 1.44 µM
TGI [34]: 2.85 µM
GI50 [35]: 3.33 µM
TGI [35]: 14.1 µM
GI50 [36]: 3.73 µM
TGI [36]: 15.5 µM
GI50 [37]: 1.43 µM
TGI [37]: 3.2 µM
GI50 [38]: 1.75 µM
TGI [38]: 3.15 µM
GI50 [39]: 2.66 µM
TGI [39]: 8.16 µM
GI50 [40]: 1.84 µM
TGI [40]: 3.53 µM
GI50 [41]: 1.97 µM
TGI [41]: 3.89 µM
GI50 [42]: 1.94 µM
TGI [42]: 3.75 µM
GI50 [43]: 2.07 µM
TGI [43]: 4.33 µM
GI50 [44]: 4.08 µM
TGI [44]: 17.8 µM
GI50 [45]: 3.34 µM
TGI [45]: 12.6 µM
GI50 [46]: 2.67 µM
TGI [46]: 6.54 µM
GI50 [47]: 1.73 µM
TGI [47]: 3.34 µM
GI50 [48]: 1.72 µM
TGI [48]: 5.17 µM
GI50 [49]: 2.96 µM
TGI [49]: 10.6 µM
GI50 [50]: 2.49 µM
TGI [50]: 8.47 µM
GI50 [51]: 2.34 µM
TGI [51]: 5.88 µM
GI50 [52]: 4.99 µM
TGI [52]: 17 µM
GI50 [53]: 1.71 µM
TGI [53]: 3.4 µM
GI50 [59]: 2.82 µM
TGI [59]: 8.98 µM
GI50 [54]: 2.25 µM
TGI [54]: 5.98 µM
GI50 [55]: 1.85 µM
TGI [55]: 3.85 µM

COC1OC2COC(=O)c3cc(O)c(O)c(O)c3-c3c(cc(O)c(O)c3O)C(=O)OC2C(O)C1O (configuration not stated)
TGI [56]: > 100 µM
TGI [1]: > 100 µM
TGI [2]: > 100 µM
TGI [3]: > 100 µM
TGI [4]: > 100 µM
TGI [5]: > 100 µM
TGI [6]: > 100 µM
TGI [7]: > 100 µM
TGI [8]: 57.9 µM
TGI [9]: > 100 µM
TGI [10]: 60 µM
TGI [11]: > 100 µM
TGI [12]: > 100 µM
TGI [13]: 30.1 µM
TGI [14]: 37.8 µM
TGI [15]: > 100 µM
TGI [16]: > 100 µM
TGI [17]: > 100 µM
TGI [18]: > 100 µM
TGI [20]: > 100 µM
TGI [21]: > 100 µM
TGI [22]: > 100 µM
TGI [23]: > 100 µM
TGI [24]: > 100 µM
TGI [25]: > 100 µM
TGI [26]: > 100 µM
TGI [27]: > 100 µM
TGI [28]: > 100 µM
TGI [29]: > 100 µM
TGI [30]: > 100 µM
TGI [31]: > 100 µM
TGI [32]: 59.2 µM
TGI [33]: > 100 µM
TGI [34]: > 100 µM
TGI [35]: > 100 µM
TGI [36]: > 100 µM
TGI [38]: > 100 µM
TGI [39]: > 100 µM
TGI [40]: > 100 µM
TGI [41]: > 100 µM
TGI [42]: 47.1 µM
TGI [43]: > 100 µM
TGI [44]: > 100 µM
TGI [45]: > 100 µM
TGI [47]: > 100 µM
TGI [48]: > 100 µM
TGI [49]: > 100 µM
TGI [50]: > 100 µM
TGI [51]: 94.8 µM
TGI [52]: > 100 µM
TGI [53]: > 100 µM
TGI [54]: > 100 µM
TGI [55]: > 100 µM
